Laboratory results from patent US20030225003A1, “Antimicrobial therapeutic compositions for oral and topical use” (priority 2002, published 2003).
“Also recorded” adds a separate entry of the source.

What was measured:
[1] = cited from earlier work
[2] = system: diarrhea; experiment: Effect of menthocarvol capsules on patients with diarrhea; assay type: in vivo, human; conditions: for time to complete recovery: with oral rehydration
Description: (§1) In one embodiment menthocarvol was made by reacting carvacrol with hydrogen under a nitrogen atmosphere in the presence of platinum, as a catalyst, to form menthocarvol. The menthocarvol was administered orally as capsules and topically as ointments to human volunteers to establish that the preliminary preferred formulation functioned to cure specific disease conditions.
Four human subjects were selected for this study with menthocarvol. In this study, the diarrhea symptoms were likely, from either acute bacterial infectous causes or food poisoning. The menthocarvol was administered orally in the form of capsules. Each 500 mg capsule contained 35 mg of the active ingredient. The therapy for each subject was usually oral administration of two 500 mg capsules.

[3] = system: chronic fatigue syndrome; experiment: Effect of menthocarvol (oral capsule or topical ointment) on chronic fatigue; assay type: in vivo, human
Description: as §1
The presence of bacteria ([…]), parasites (entamoeba gingivalis, or trichomonas tenax) and/or fungi (Candida, or Aspergillus species) in the mouth, nose, or sinus cavities is often accompanied by a history of generalized malaise, fatigue, and frequent headaches, frequently referred to as general fatigue syndrome. Laboratory testing for pathogens is usually negative. People suffering from fatigue syndrome typically function at a substantially lower level of activity than they were capable of before the onset of fatigue symptoms. Fatigue is not improved by bed rest and may be exacerbated by physical or mental activity. Moreover, the presence of some microorganisms in the stomach (i.e. Helicobacter pylori) and bowels, especially in diverticulas (outpouchings of the intestinal mucosa), is often accompanied by malaise and headache.
In the United States, colonic diverticula occurs in approximately 50% of individuals older than 60 years of age. Treatment with menthocarvol of volunteers suffering from this chronic fatigue syndrome was conducted. The menthocarvol therapy was administered in an oral dose of a single 250 mg capsule (17.5 mg active ingredient) or 500 mg capsule (35 mg active ingredient). Two of the subjects, who had localized pain in an extremity, were treated topically with menthocarvol in an ointment (3% active ingredient in lanolin oil). A total of six active individuals complaining of fatigue syndrome participated in this study.

[4] = system: periodontal disease; experiment: Effect of orally applied menthocarvol solution on periodontal disease; assay type: in vivo, human
Description: A study on three subjects was performed to test the effectiveness of orally applied ointments containing menthocarvol to treat periodontal disease in humans. The preliminary formulation used was first was a 3% solution of menthocarvol followed by treatment with a 0.6% solution, administered twice a week for three months. The treatment was given with a syringe and applied orally to the affected areas between the teeth at the gum line. […] This phenomenon disappeared in approximately two hours.

[5] = four patients, two 500 mg capsules orally
[6] = six individuals, oral and topical formulations

SMILES	solubility in lipids [1]	time to complete recovery ([2]; Case 3, two 500 mg capsules orally)	cure of diarrhea, all four patients [2, 5]	unpleasant or adverse side effects [2, 5]	time to complete recovery ([2]; single cases, two 500 mg capsules orally)	effect on fatigue syndrome symptoms ([3]; Case 4, oral 500 mg capsule (35 mg active ingredient) after breakfast for five days)	effect on fatigue syndrome symptoms ([3]; single cases, oral 250 mg capsule (17.5 mg active ingredient) after breakfast for five or ten days)	adverse side effects ([3]; single cases, oral 250 mg or 500 mg capsule after breakfast for five days)	effect on localized pain in an extremity ([3]; single cases, topical cream, 3% active ingredient in lanolin oil, applied before exercise)	effect on fatigue and pain, all cases [3, 6]	unpleasant or adverse side effects, all subjects [3, 6]	local side effect (tingling sensation) ([4]; 0.6% solution)	infection and observable periodontal disease ([4]; 0.6% solution only, same three patients)	local side effect on gums and tongue ([4]; 3% solution)	necrotic effect on the epithelial cells lining the mouth cavity ([4]; 3% solution)	time until the tingling sensation disappeared ([4]; 3% solution)	inflammation of gums ([4]; 3% solution applied at the gum line, three patients)
CC1CCC(C(C)C)C(O)C1 (stereo not drawn) [menthol, 1-Methyl-4-isopropyl cyclohexane-3-ol, reference compound]	soluble in lipids	–	–	–	–	–	–	–	–	–	–	–	–	–	–	–	–
Cc1ccc(C(C)C)cc1O [carvacrol, 5-isopropyl-2-methylphenol]	soluble in lipids	–	–	–	–	–	–	–	–	–	–	–	–	–	–	–	–
CC(C)C1CCC(C)C(O)C1 (stereo not drawn) [menthocarvol, hexahydrocarvacrol]	–	24 h	the diarrhea was cured quickly	None of the patients reported unpleasant or adverse side effects	three and two	the fatigue and muscle soreness disappeared	the symptoms of malaise and unrefreshing sleep disappeared; also recorded: The sore throat and pain disappeared after five days of treatment; also recorded: the symptoms of fatigue and headache were relieved	No adverse side effects were reported; also recorded: No adverse side affects were reported	The signs of leg and foot muscle fatigue disappeared after the tenth treatment; also recorded: The pain and swelling was significantly reduced after six applications	positive effects on the fatigue and pain	No subjects complained of unpleasant or adverse side effects	This side effect was not observed	some improvement	a temporary tingling sensation on the gums	no observable necrotic effect	approximately two	a marked improvement in the inflammation of their gums was observed
